Reference: US6426401B1, “Pharmaceutical composition containing an inhibitor of immunoglobulin-receptor interaction” (Tecnogen S.C.p.A., priority 1996, dated 2002)
≈ marks a conversion by molar mass, not a printed value.

Tests used:
[1] = test system: interaction IgE-receptor (FcεR of local mastcells); test: Passive cutaneous anaphylaxis assay (blueing lesions, Evan's Blue); format: in vivo; conditions: rat; for Extension of blueing lesion (%): intradermal with ascitic fluid IgE; for inhibition of IgE-receptor interaction in vivo (in words): passive cutaneous anaphylaxis
Experimental: Rat ascit fluid containing ovalbumin antigen specific IgE and with a total immunoglobulins amount of 4 mg/ml, scaled diluted in PBS, has been injected by intradermal route in a male rat of CD specie.
Intradermal injection of 50 μl volume have been done on the shaved back of the animal.
In this way it has been allowed ascitic fluid IgE to bind FcεR of local mastcells, sensitizing them.
After 24 h, 1 mg of ovalbumin and Evan's Blue dye at 2% concentration in 1 ml of PBS have been injected by endovenous route.
After 15 minutes it has been observed the presence on the rat back derma of a colored area whose extension and color intensity are proportional to the IgE antigen-specific amount injected together with the ascitic fluid.
The blueing lesions are given by the injected antigen that bind to the IgE and determined the degranulation and the release of mediators in the site of intradermal injection. Consequently a local increase of vascular permeability and a dye leak from vessel has been observed.
For the inhibition assay, the ascitic fluid containing IgE and properly diluted has been incubated with L-PAM and D-PAM peptides in total immunoglobulins-peptides molar ratio 1:2,1:20,1:200, 1:2000, 1:20.000, and 1:200.000, […]
Separate experiments for the two peptides have been performed.
In CD1 rats, 50 μl of the fluid ascitic-peptide mixture at various concentrations have been injected intradermally.
As a positive control it has been used a 50 μl injection of ascitic fluid free of peptide.
After 24 h the antigen, together with Evans's Blue dye, has been injected as described above.
After 15 minutes it has been observed that the intensity and extension of the blueing lesions on the rat back were […] to the amounts of the injected peptide and were completely absent at highest peptide concentrations.

[2] = test system: interaction between human IgG and receptors Fcγ (U937 plasma-membrane); test: IgG-FcR binding inhibition on U937 plasma-membrane (ELISA)
Description: For this purpose, it has been developed an inhibition assay of the binding between human immunoglobulins (Ig) IgG and IgA and their receptors on U937 human cell line plasma-membrane.
The IgG receptors FcgRI and FcgRII (Looney R. et al., J. Immunol., 136, 1641, 1986) and IgA receptors Fca (Monteiro R. C., et al., J. Exp.Med., 171, 597-613, 1990) are constitutively express by this cell line.
Microplates for ELISA determination (Falcon Cat. No. 3912) have been treated with plasma-membrane obtained from U937 cells in variable concentrations between 0.1 and 10 μg/ml (referred to the total proteins in the plasma-membrane preparation) in PBS, 100 μl/well, for 15 hours at 4° C.
After 1 hour and 30′ at room temperature, the plates have been washed 5 times with PBS-T (PBS-Tween 0.05%) and each well has been filled with 100 μl of solutions containing biotinilated Ig at variable concentrations between 0.02 and 2 μg/ml in PBS-BSA 0.5%.
After incubation of 1 h 30′ at 37° C., a solution of streptavidin derivatized with peroxidase has been added (Sigma, Cat. No. S-5512) diluted 1:1000 in PBS-BSA 0.5%, 100 μl/well. After 1 h incubation at 37° C., the plates have been washed 5 times with PBS-T and each well has been filled with 100 μl of a 2,2′-azino-bis(3-ethylbenzthiazoline-6-sulfonic acid) (Sigma, Cat. No. A-9941) in phosphate buffer pH 5 and 0.012% hydrogen peroxide.
After about 30′ the absorbance at 405 nm of each well has been determined by a plate reader (Merck, Mod. Mios) and the results are shown in TABLE 1.
The inhibition Ig/Fc assay has been carried out using U937 plasma-membrane at 10 μg/ml concentration for immobilization on plate and biotinilated Ig at 0.4 μg/ml concentration.
IgGs have been incubated with peptides of this invention (L-PAM, D-PAM and P-PAM) and two controls, namely peptides Arg-Thr-Tyr in L configuration (named CON-L) and in D configuration (named CON-D), at concentrations between 1 to 500 μg/ml (Table 2), whereas for IgA the inhibition assays have been carried out in similar conditions with L-PAM and CON-L peptides (Table 3).
B/B0 means the inhibition percentage calculated dividing the values, in terms of OD, obtained in presence of competitors, by those obtained in absence of competitors.

[3] = test system: SRBC-IgG and U937 FcRs; format: cell-based, human; conditions: for IC50 (inhibitor amount necessary to reduce at 50% the rosettes formation between SRBC-IgG and U937 FcRs): U937/SRBC-IgG 1:100, 30 minutes at 25° C.
Description: The trial has been carried on L-PAM and D-PAM peptides with the assay of rosettes formation inhibition between sheep red blood cells (SRBC) derivatized with human IgG and U937 cells (prepared as described above). Rosettes formation assay has been performed in accordance with the protocol of Lund J. et al. (FASEB J., 9, 115-119, 1995) modified as follows. The derivatized SRBC have been prepared using SRBC-tanned (tannic acid pretreated SRBC, Sigma Cat. No. R-8128) and human IgG (Sigma Cat. No. I-4506) following the provider protocol. […] No. A-9418) in DPBS (Sigma, Cat. No. D-5527). […] After 30 minutes at 25° C. rosettes have been counted, and more particularly U937 having 4 or more SRBC bound on the surface. In these conditions it has been discovered that, on the average, the 45% of treated U937 gave rosettes formation. In the above described conditions, it has been performed the inhibition assay of rosettes formation by using L-PAM , D-PAM, CON-L and CON-D peptides. A further control assay has been carried on by using IgG as inhibition positive control and not derivatized SRBC as negative control.

[4] = test system: interaction between human IgA and receptors Fcα (U937 plasma-membrane); test: IgA/FcR binding inhibition on U937 plasma-membrane (ELISA)
Description: For this purpose, it has been developed an inhibition assay of the binding between human immunoglobulins (Ig) IgG and IgA and their receptors on U937 human cell line plasma-membrane. The IgG receptors FcgRI and FcgRII (Looney R. et al., J. Immunol., 136, 1641, 1986) and IgA receptors Fca (Monteiro R. C., et al., J. Exp.Med., 171, 597-613, 1990) are constitutively express by this cell line. Microplates for ELISA determination (Falcon Cat. No. 3912) have been treated with plasma-membrane obtained from U937 cells in variable concentrations between 0.1 and 10 μg/ml (referred to the total proteins in the plasma-membrane preparation) in PBS, 100 μl/well, for 15 hours at 4° C. […] After incubation of 1 h 30' at 37° C., a solution of streptavidin derivatized with peroxidase has been added (Sigma, Cat. No. […] No. A-9941) in phosphate buffer pH 5 and 0.012% hydrogen peroxide. After about 30' the absorbance at 405 nm of each well has been determined by a plate reader (Merck, Mod. Mios) and the results are shown in TABLE 1. […] B/B0 has the above mentioned meaning.

[5] = inhibitor amount 0.025 micrograms (first line)
[6] = inhibitor amount 0.025 micrograms
[7] = inhibitor amount 2.5 micrograms
[8] = inhibitor amount 250 micrograms
[9] = inhibitor amount 2500 micrograms

Molecule | Extension of blueing lesion (%) [1, 5] [%] | Extension of blueing lesion (%) [1, 6] [%] | Extension of blueing lesion (%) [1, 7] [%] | Extension of blueing lesion (%) ([1]; inhibitor amount 25 micrograms) | Extension of blueing lesion (%) [1, 8] [%] | Extension of blueing lesion (%) [1, 9] [%] | inhibition of IgE-receptor interaction in vivo (in words) [1] | inhibition of IgG-FcR interaction (in words) [2] | inhibition of rosettes formation (in words) [3] | inhibition of IgA-FcR interaction (in words) [4] | IC50 (inhibitor amount necessary to reduce at 50% the rosettes formation between SRBC-IgG and U937 FcRs) [3]
C[C@H](O)[C@@H](NC(=O)[C@H](N)CCCNC(=N)N)C(=O)N[C@H](Cc1ccc(O)cc1)C(=O)NCCCC[C@H](NC(=O)[C@@H](Cc1ccc(O)cc1)NC(=O)[C@H](NC(=O)[C@H](N)CCCNC(=N)N)[C@H](C)O)C(=O)NCCCC[C@H](NC(=O)[C@H](CCCCNC(=O)[C@@H](Cc1ccc(O)cc1)NC(=O)[C@H](NC(=O)[C@H](N)CCCNC(=N)N)[C@H](C)O)NC(=O)[C@@H](Cc1ccc(O)cc1)NC(=O)[C@H](NC(=O)[C@H](N)CCCNC(=N)N)[C@H](C)O)C(=O)NCC(=O)O [D-PAM, (H2N-D-Arg-D-Thr-D-Tyr-CO)4-(Lys)2-Lys-Gly-OH] | 60 | 37 | 33 | 20 | 15 | 0 | able to inhibit in a dose dependent manner the interaction IgE-receptor up to a complete disappearance of the inflammatory reaction | produce, in a dose-dependent manner, the same interaction level as IgG | capable of inhibiting rosettes formation |  | 
C[C@@H](O)[C@H](NC(=O)[C@@H](N)CCCNC(=N)N)C(=O)N[C@@H](Cc1ccc(O)cc1)C(=O)NCCCC[C@H](NC(=O)[C@H](Cc1ccc(O)cc1)NC(=O)[C@@H](NC(=O)[C@@H](N)CCCNC(=N)N)[C@@H](C)O)C(=O)NCCCC[C@H](NC(=O)[C@H](CCCCNC(=O)[C@H](Cc1ccc(O)cc1)NC(=O)[C@@H](NC(=O)[C@@H](N)CCCNC(=N)N)[C@@H](C)O)NC(=O)[C@H](Cc1ccc(O)cc1)NC(=O)[C@@H](NC(=O)[C@@H](N)CCCNC(=N)N)[C@@H](C)O)C(=O)NCC(=O)O [L-PAM, (H2N-L-Arg-L-Thr-L-Tyr-CO)4-(Lys)2-Lys-Gly-OH] | 65 | 50 | 35 | 0 | 0 | 0 | able to inhibit in a dose dependent manner the interaction IgE-receptor up to a complete disappearance of the inflammatory reaction | produce, in a dose-dependent manner, the same interaction level as IgG | capable of inhibiting rosettes formation | specifically inhibit the interaction IgA-FcR | 78 µg/mL (≈ 36.4 µM)
(H2N-L-Arg(Pmc)-L-Thr(OtBu)-L-Tyr(OtBU)-CO)4-(Lys)2-Lys-Gly-OH [P-PAM] |  |  |  |  |  |  |  | produce, in a dose-dependent manner, the same interaction level as IgG |  | specifically inhibit the interaction IgA-FcR | 
Arg-Thr-Tyr [CON-L, reference compound] |  |  |  |  |  |  |  | unable to inhibit this interaction | unable to inhibit this interaction | unable to produce the same effect | No Inhibition
bovine serum albumin [BSA, reference compound] |  |  |  |  |  |  |  | unable to inhibit this interaction |  | unable to produce the same effect | 
